Experimental data reported in article PMC5519928, “Log D versus HPLC derived hydrophobicity: The development of predictive tools to aid in the rational design of bioactive peptoids” (Biopolymers, 2017).
≈ marks a conversion by molar mass, not a printed value. Non-standard residues stand in square brackets, D forms with d. Residues, ends and D or L forms follow the SMILES beside them. Gly(N-2-aminoethyl) = NCCNCC(=O)O; Nspe = C[C@H](NCC(=O)O)c1ccccc1; Nphe = O=C(O)CNCc1ccccc1; Nlys = NCCCCNCC(=O)O

Key:
[1] = Average hydrophobicity by analytical reverse-phase HPLC retention; assay type: physicochemical; details: for RP-HPLC Retention (% MeCN): Supplement table 4 (chemical and physical data for peptoid library), % MeCN at elution in RP-HPLC; for RP-HPLC Retention: Table S3, representative analytical RP-HPLC traces, SB-Analytical ODH-S column 100 x 1.6 mm, 3.5 µm, 0-100% solvent B over 30 min at 220 nm, A = 95% H2O, 0.05% TFA, B = 95% MeCN, 0.03% TFA
Description: (§1) To examine the average hydrophobicity of the peptoids, the retention time for from reverse‐phase HPLC was determined on a C18 column using acetonitrile and water, with 0.1% TFA (see Figure 3A). To find log D values, partitioning experiments were carried out, as illustrated by Figure 2. A peptoid solution (between 10 and 100 µM) in PBS was added to an equal volume of octanol and the system allowed to equilibrate under gentle agitation for ∼150 h (as 48 h was not found to be sufficient for the system to reach equilibrium). At this point it is assumed that the peptoid has partitioned between these two phases, such as to minimise its free energy.
Preparative RP‐HPLC was performed with a semi‐preparative Perkin Elmer Series 200 lc pump fitted with a 785A UV/Vis detector using a SB‐Analytical ODH‐S optimal column (250 mm × 10 mm, 5 µm); flow rate 2 mL min^−1; λ = 250 nm, typical linear gradient elution 0–50% of solvent B over 60 min (A = 0.1% TFA in 95% H2O and 5% MeCN, B = 0.1% TFA in 5% H2O and 95% MeCN). Analytical RP‐HPLC was performed with a Perkin Elmer Series 200 LC pump fitted with a Series 200 UV/Vis detector using a SB‐Analytical ODH‐S optimal column (100 mm × 1.6 mm, 3.5 µm); flow rate 1 mL min^−1; λ = 220 nm, linear gradient elution 0–100% of solvent B over 30 min (A = 0.05% TFA, 95% H2O, 5% MeCN, B = 0.03% TFA, 5% H2O, 95% MeCN).
Preparative RP-HPLC was performed with a semi-preparative Perkin Elmer Series 200 lc pump fitted with a 785A UV/Vis detector using a SB-Analytical ODH-S optimal column (250 × 10 mm, 5 µm); flow rate 2 ml min^−1; λ = 250 nm, typical linear gradient elution 0-50% of solvent B over 60 min (A = 0.1% TFA in 95% H2O and 5% MeCN, B = 0.1% TFA in 5% H2O and 95% MeCN). Analytical RP-HPLC was performed with a Perkin Elmer Series 200 LC pump fitted with a Series 200 UV/Vis detector using a SB-Analytical ODH-S optimal column (100 × 1.6 mm, 3.5 µm); flow rate 1 ml min^−1; λ = 220 nm, linear gradient elution 0-100% of solvent B over 30 min (A = 0.05% TFA, 95% H2O, 5% MeCN, B = 0.03% TFA, 5% H2O, 95% MeCN).
Table S3. Data from analytical RP-HPLC for representative compounds of this peptoid library. Analytical HPLC gradient: 0 – 100% solvent B over 30 min at 220 nm (where solvent A = 95% H2O, 5% MeCN, 0.05 % TFA; solvent B = 95% MeCN, 5% H2O, 0.03% TFA).

S. aureus = assay type: cell-based; details: 16 h
Description: (§2) Bacterial cultures were prepared by streaking the bacterial strain from a 4°C- or frozen stock culture to single colonies onto agar plates (containing the appropriate antibiotic for strains carrying antibiotic resistance plasmids) with an inoculation loop, followed by overnight incubation at 37 °C.
(§3) Primary overnight (o/n) cultures were prepared by inoculating a single colony from a streak plate into 5 mL of LB broth in a screw-capped culture tube, that was placed on a tube rotator at 37 °C (or 30 °C for sensitive strains) for overnight incubation. Before the usage of stock cultures the strains genotype were checked. Primary stocks were stored at 4°C for up to 6 weeks and always replaced from fresh colonies.
(§4) Fresh cultures used for experiments contained 0.1-0.5 mL o/n culture diluted into 8 mL of fresh medium in a standard test tube. Placed in a shaking water bath or on a tube rotator the bacteria were grown at the required temperature to the required cell density. Frozen stock cultures used for long term storage that can remain viable for 10 years were prepared by mixing 2.5 mL fresh o/n culture with 1.5 mL sterile 80% glycerol in a 5 mL sterile blood tube and stored at -20 °C.
(§5) MIC values were attained according to the previously described protocol4 and were conducted in 96-well plates (Costar, Fisher Scientific). Using the pre-prepared cultures, an innoculum density of 0.07 at 650 nm was set by comparing the absorbance with 0.5 MacFarland standard (240 μM BaCl2 in 0.18 M H2SO4). The innoculum was then diluted down ten-fold with Iso-sensitest broth (Oxoid, ThermoScientific) before use. Peptoids were initially dissolved in DMSO (5 mM) and then diluted further with Iso-sensitest broth to achieve a concentration range of 4 – 200 µM using 1 : 2 serial dilutions. 50 μl of innoculum and 50 μL of peptoid solution were added to each test well (final concentration range of 2 – 100 µM). Positive control containing only innoculum and Iso-sensitest broth; negative control containing inoculum and serial dilutions of ampicillin (from 250 microgram/mL to 2 microgram per mL); DMSO control containing innoculum and serial dilutions of DMSO; and Iso-sensitest broth were used as a sterile control. […] Quantitative data was attained from absorbance values using a microplate reader.

E. coli = assay type: cell-based; details: 16 h
Description: as §2, §3, §4, §5

[2] = log D by partitioning experiment in octanol and PBS; assay type: physicochemical; details: pH 7.4
Description: as §1
A combination of UV spectrometry and dynamic light scattering were used to determine that no aggregation was taking place in either phase (see Supporting Information). The peptoid concentrations of both phases were then determined using UV–Vis spectroscopy and the logarithm of the ratio of […] (log D) was calculated (Figure 3B). […]
Partition experiments were carried out by putting 450 µL of octanol in contact with 450 µL of PBS, which contained between […] of peptoid. Each peptoid was measured in triplicate. […] The concentration of peptoid remaining in the PBS and the octanol was measured individually using the phenylalanine peak as before. […]

| Structure (SMILES) | RP-HPLC Retention (% MeCN) [1] [% MeCN] | also measured |
| --- | --- | --- |
| C[C@@H](c1ccccc1)N(CC(N)=O)C(=O)CN(C(=O)CN(CCN)C(=O)CN(C(=O)CN(C(=O)CN(CCN)C(=O)CN(C(=O)CN(C(=O)CN(CCN)C(=O)CN(C(=O)CN(C(=O)CNCCN)[C@@H](C)c1ccccc1)[C@@H](C)c1ccccc1)[C@@H](C)c1ccccc1)[C@@H](C)c1ccccc1)[C@@H](C)c1ccccc1)[C@@H](C)c1ccccc1)[C@@H](C)c1ccccc1 [Peptoid 10] (H-[Gly(N-2-aminoethyl)][Nspe][Nspe][Gly(N-2-aminoethyl)][Nspe][Nspe][Gly(N-2-aminoethyl)][Nspe][Nspe][Gly(N-2-aminoethyl)][Nspe][Nspe]-NH2) | 41 | HPLC RT ([1]; Table 2 / main text, chromatographic, RP-HPLC C18 retention time as measure of average hydrophobicity, gradient 0-100% solvent B over 30 min, 220 nm, 1 mL/min, A = 0.05% TFA, 95% H2O, 5% MeCN, B = 0.03% TFA, 5% H2O, 95% MeCN, around pH 2.2): 16.7 min; MIC S. aureus (S. aureus): 2 µM (≈ 3.41 µg/mL); MIC E. coli (E. coli): >100 µM |
| C[C@@H](c1ccccc1)N(CC(N)=O)C(=O)CN(C(=O)CN(CCCCN)C(=O)CN(C(=O)CN(C(=O)CN(CCCCN)C(=O)CN(C(=O)CN(C(=O)CNCCCCN)[C@@H](C)c1ccccc1)[C@@H](C)c1ccccc1)[C@@H](C)c1ccccc1)[C@@H](C)c1ccccc1)[C@@H](C)c1ccccc1 [Peptoid 5] (H-[Nlys][Nspe][Nspe][Nlys][Nspe][Nspe][Nlys][Nspe][Nspe]-NH2) | 37 | RP-HPLC Retention ([1]; 5% MeCN, 5% H2O): 15.3 min |
| C[C@@H](c1ccccc1)N(CC(N)=O)C(=O)CN(C(=O)CN(CCN)C(=O)CN(C(=O)CN(C(=O)CNCCN)[C@@H](C)c1ccccc1)[C@@H](C)c1ccccc1)[C@@H](C)c1ccccc1 [Peptoid 12] | 33 | – |
| C[C@@H](c1ccccc1)N(CC(N)=O)C(=O)CN(C(=O)CN(CCCCN)C(=O)CN(C(=O)CN(C(=O)CNCCCCN)[C@@H](C)c1ccccc1)[C@@H](C)c1ccccc1)[C@@H](C)c1ccccc1 [Peptoid 6] (H-[Nlys][Nspe][Nspe][Nlys][Nspe][Nspe]-NH2) | 33 | RP-HPLC Retention ([1]; 5% MeCN, 5% H2O): 14.4 min |
| NCCCCNCC(=O)N(CC(=O)N(CC(=O)N(CCCCN)CC(=O)N(CC(=O)N(CC(N)=O)Cc1ccccc1)Cc1ccccc1)Cc1ccccc1)Cc1ccccc1 [Peptoid 3] (H-[Nlys][Nphe][Nphe][Nlys][Nphe][Nphe]-NH2) | 31 | – |
| NCCCCNCC(=O)N(CC(=O)N(CC(=O)N(CCCCN)CC(=O)N(CC(=O)N(CC(=O)N(CCCCN)CC(=O)N(CC(=O)N(CC(=O)N(CCCCN)CC(=O)N(CC(=O)N(CC(N)=O)Cc1ccccc1)Cc1ccccc1)Cc1ccccc1)Cc1ccccc1)Cc1ccccc1)Cc1ccccc1)Cc1ccccc1)Cc1ccccc1 [Peptoid 1] (H-[Nlys][Nphe][Nphe][Nlys][Nphe][Nphe][Nlys][Nphe][Nphe][Nlys][Nphe][Nphe]-NH2) | 37 | – |
| C[C@@H](c1ccccc1)N(CC(N)=O)C(=O)CN(C(=O)CN(CCN)C(=O)CN(C(=O)CN(C(=O)CN(CCN)C(=O)CN(C(=O)CN(C(=O)CNCCN)[C@@H](C)c1ccccc1)[C@@H](C)c1ccccc1)[C@@H](C)c1ccccc1)[C@@H](C)c1ccccc1)[C@@H](C)c1ccccc1 [Peptoid 11] (H-[Gly(N-2-aminoethyl)][Nspe][Nspe][Gly(N-2-aminoethyl)][Nspe][Nspe][Gly(N-2-aminoethyl)][Nspe][Nspe]-NH2) | 39 | log D [2]: negative |
| NCCNCC(=O)N(CC(=O)N(CC(=O)N(CCN)CC(=O)N(CC(=O)N(CC(=O)N(CCN)CC(=O)N(CC(=O)N(CC(N)=O)Cc1ccccc1)Cc1ccccc1)Cc1ccccc1)Cc1ccccc1)Cc1ccccc1)Cc1ccccc1 [Peptoid 8] (H-[Gly(N-2-aminoethyl)][Nphe][Nphe][Gly(N-2-aminoethyl)][Nphe][Nphe][Gly(N-2-aminoethyl)][Nphe][Nphe]-NH2) | 34 | – |
| NCCCCNCC(=O)N(CC(=O)N(CC(=O)N(CCCCN)CC(=O)N(CC(=O)N(CC(=O)N(CCCCN)CC(=O)N(CC(=O)N(CC(N)=O)Cc1ccccc1)Cc1ccccc1)Cc1ccccc1)Cc1ccccc1)Cc1ccccc1)Cc1ccccc1 [Peptoid 2] | 34 | – |
| NCCNCC(=O)N(CC(=O)N(CC(=O)N(CCN)CC(=O)N(CC(=O)N(CC(=O)N(CCN)CC(=O)N(CC(=O)N(CC(=O)N(CCN)CC(=O)N(CC(=O)N(CC(N)=O)Cc1ccccc1)Cc1ccccc1)Cc1ccccc1)Cc1ccccc1)Cc1ccccc1)Cc1ccccc1)Cc1ccccc1)Cc1ccccc1 [Peptoid 7] (H-[Gly(N-2-aminoethyl)][Nphe][Nphe][Gly(N-2-aminoethyl)][Nphe][Nphe][Gly(N-2-aminoethyl)][Nphe][Nphe][Gly(N-2-aminoethyl)][Nphe][Nphe]-NH2) | 37 | RP-HPLC Retention ([1]; 5% MeCN, 5% H2O): 15.2 min |
| NCCNCC(=O)N(CC(=O)N(CC(=O)N(CCN)CC(=O)N(CC(=O)N(CC(N)=O)Cc1ccccc1)Cc1ccccc1)Cc1ccccc1)Cc1ccccc1 [Peptoid 9] (H-[Gly(N-2-aminoethyl)][Nphe][Nphe][Gly(N-2-aminoethyl)][Nphe][Nphe]-NH2) | 30 | – |
